The target in data set [1] is T1, trypsin (Bos taurus, UniProt P00760).
T1 sequence (P00760 24-246): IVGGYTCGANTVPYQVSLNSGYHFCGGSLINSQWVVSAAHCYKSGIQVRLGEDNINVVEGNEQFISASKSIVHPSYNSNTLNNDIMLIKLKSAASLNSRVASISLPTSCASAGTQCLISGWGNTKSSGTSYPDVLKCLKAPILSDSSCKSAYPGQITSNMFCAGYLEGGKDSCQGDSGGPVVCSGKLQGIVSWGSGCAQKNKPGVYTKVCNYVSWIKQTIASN
In words: Elution of bound trypsin from affinity polymer during ultrafiltration. To be noted: for elution of bound trypsin from polymer 5:1 by eluting solution: 500 mM arginine with 10 mM Ca++ in Tris pH 8, 2M KCl with 10 mM Ca++ in pH 8 Tris, 10 mM m-aminobenzamidine, data not shown. How it is done: Investigation was next conducted on the eluting characteristics of four agents (FIG. 1).
Tests were also performed to determine whether the elution of trypsin with arginine was affected by the acrylamide:monomer ratio and the polymer concentration.

In data set [2] the target is T1, trypsin. In words: Trypsin inhibition kinetics, substrate Nα-benzoyl-L-arginine p-nitroanilide. In kind it is biochemical.
Data set [3] addresses T1, trypsin. The settings on record: with respect to substrate benzoyl-L-arginine p-nitroanilide; literature; cited from earlier work.
The subject of data set [4] is trypsin. To be noted: Adamski-Medda et al, 1981; cited from earlier work.
The test system of another data set is chymotrypsin. To be noted: Adamski-Medda et al, 1981; cited from earlier work.
The target in data set [5] is T1, trypsin. As to the kind of experiment: Trypsin storage stability with/without affinity polymer (trypsin activity). In kind it is physicochemical. The settings on record: without affinity polymer. On the procedure: Trypsin can be adsorbed by the affinity polymer and stored until this enzyme is required for use or further processing. […] Without the affinity polymer, the trypsin retained only half of its activity at 25° C. after three days even though this solution was stabilized by adding an appropriate amount of calcium. It was further shown that at 4° C. without the affinity polymer trypsin retained approximately 70% of its original activity after 10 days.

Consider five molecules from patent publication US4973554A, “Affinity process for trypsin purification and stabilization” (National Research Council of Canada, priority 1987, dated 1990).

For `[Cl-].[K+]` [KCl], on trypsin [1], the “elution of bound trypsin from polymer 5:1 by eluting solution” value (“elution of bound trypsin” below) was “eluted easily”.
By Ki is commonly meant the dissociation constant of the complex between target and ligand, obtained from inhibition or displacement. Low values mean higher affinity, high ones lower affinity. On to `N=C(N)NCCC[C@H](N)C(=O)O` [arginine, L-arginine], for which the “elution of bound trypsin” value at trypsin [1] is reported as “eluted easily”. In addition, the “eluting characteristics of agents (FIG. 1)” value on trypsin [1] (polymer 5:1 at 0.75% containing 300 mg trypsin, four agents compared) is listed as “most effective eluting agent”. The affinity on trypsin [2], expressed as Ki, was 41 ± 3 mM. On trypsin [2] (with respect to substrate Nα-benzoyl-L-arginine p-nitroanilide, data not shown), the “mechanism of trypsin inhibition” value was “competitive inhibitor”.
As for `N=C(N)c1cccc(N)c1` [m-aminobenzamidine], the “trypsin inhibition kinetics (mechanism)” value on trypsin [3] is “competitive manner”. Further, on trypsin [1], the “elution of bound trypsin” value is on record as “eluted easily”. Besides, the “inhibitor strength among ortho, meta, para aminobenzamidine” value at trypsin [2] (position of amino group compared) is recorded as “strongest inhibitor”.
For the molecule dextran-p-aminobenzamidine, the “trypsin in the filtrate in presence of macroligand” value in the data set on trypsin [4] is listed as 24%. For the same molecule, in the data set with chymotrypsin, the “chymotrypsin in the filtrate in presence of macroligand” value was 65%.

B1: trypsin (protein, UniProt P00760 24-246, looked up)
Serine protease 1: T1 sequence (P00760 24-246)
Regarding B1, in the data set with trypsin [5] (4° C., 10 days), the “original trypsin activity retained” value is recorded as “approximately 70%”. Further, the trypsin activity retained result with trypsin [5] (25° C., three days, calcium added) is given as “half”.
